Experimental findings from patent US20040142971A1, “BENZOTHIOPHENE COMPOUNDS HAVING ANTIINFECTIVE ACTIVITY” (GeneSoft, Inc., priority 2001, published 2004) are described below.

What all share (experiment): MIC, NCCLS broth microdilution
In general terms: Broth dilution looks for growth in wells or tubes with falling amounts of substance.

Assay [1] concerns B. Cereus ATCC 11778. The format is cell-based, Bacillus cereus. The following applies: A = B. Cereus ATCC 11778. From the text:
(§1) In vitro biological activity data were collected for a variety of microorganisms, including Bacillus cereus (ATCC 11778), Staphylococcus aureus (ATCC 27660 (a methicillin resistant strain (MRSA), ATCC 33591 and ATCC 43300); ATCC 13709, a methicillin sensitive strain (MSSA)); Streptococcus pneumoniae (ATCC 51422, a penicillin resistant strain (PRSP)), Enterococcus faecium (ATCC 51559, a vancomycin resistant strain (VRE)), and Staphylococcus epidermidis (ATCC 700586, a methycillin resistant strain (MRSE)). Additionally, antifungal activity data were collected for Candida albicans (ATCC 38247). Minimal inhibition concentrations (MIC's) were determined using the National Committee for Clinical Laboratory Standards (NCCLS) broth microdilution assay in microtiter plates, as set forth in: (1) the guidelines of the National Committee for Clinical Laboratory Standards (NCCLS) Document M7-A4 (NCCLS, 1997); (2) the guidelines of the National Committee for Clinical Laboratory Standards (NCCLS) Document M11-A4 (NCCLS, 1997); and (3) the guidelines and reference method of the National Committee for Clinical Laboratory Standards (NCCLS) Document M27-T (NCCLS, 1995). For antifungal essays, the method recommended in Murray, PR., 1995 Manual of Clinical Microbiology (ASM Press, Washington, D.C.), was employed.

The test system of assay [2] is S. aureus ATCC 13709 (methicillin sensitive strain, MSSA). The format is cell-based, Staphylococcus aureus. Conditions: C = S. aureus ATCC 13709.
From the text: as §1

The subject of assay [3] is S. aureus ATCC 27660 (methicillin resistant strain, MRSA). The format is cell-based, Staphylococcus aureus. The following applies: D = S. aureus ATCC 27660.
From the text: as §1

The test system of assay [4] is S. aureus ATCC 33591. The format is cell-based, Staphylococcus aureus. The following applies: E = S. aureus ATCC 33591.
From the text: as §1

Consider `Cn1cc(NC(=O)c2cc(NC(=O)c3sc4ccccc4c3Cl)cn2C)cc1C(=O)NCCN1CCC(O)CC1` [Ib-20a], for which the “Minimum Inhibitory Concentration (MIC)” value in assay [1], in assay [2] and in assay [3] was “+++ (+++ = MIC ≦ 4)” throughout.
For the molecule `Cn1cc(NC(=O)c2cc(NC(=O)c3cc(NC(=O)c4sc5ccccc5c4Cl)cn3C)cn2C)cc1C(=O)NCC[N+]1(C)CCOCC1` [Ib-20b], the “Minimum Inhibitory Concentration (MIC)” value in assay [1], in assay [2], in assay [3] and in assay [4] was “+++ (+++ = MIC ≦ 4)” in each case.
As for `Cc1ccc2c(Cl)c(C(=O)Nc3cc(C(=O)Nc4cc(C(=O)Nc5cc(C(=O)NCCN6CCOCC6)n(C)c5)n(C)c4)n(C)c3)sc2c1` [Ib-20c], the “Minimum Inhibitory Concentration (MIC)” value in assay [1], in assay [2], in assay [3] and in assay [4] was “+++ (+++ = MIC ≦ 4)” throughout.
Take `Cn1cc(NC(=O)c2sc3cc4c(cc3c2Cl)OCO4)cc1C(=O)NCCN1CCOCC1` [Ib-20f]: the “Minimum Inhibitory Concentration (MIC)” value in assay [1], in assay [2], in assay [3] and in assay [4] was “+++ (+++ = MIC ≦ 4)” in each case.
With `CCN(CC)CCNC(=O)c1cc(NC(=O)c2cc(NC(=O)c3cc(NC(=O)c4sc5cc6c(cc5c4Cl)OCO6)cn3C)cn2C)cn1C` [Ib-20h], the “Minimum Inhibitory Concentration (MIC)” value in assay [1], in assay [2], in assay [3] and in assay [4] was “+++ (+++ = MIC ≦ 4)” each time.
For `Cn1cc(NC(=O)c2cc(NC(=O)c3cc(NC(=O)c4sc5cc6c(cc5c4Cl)OCO6)cn3C)cn2C)cc1C(=O)NCCN1CCSCC1` [Ib-20i], the “Minimum Inhibitory Concentration (MIC)” value in assay [1], in assay [2] and in assay [3] was “+++ (+++ = MIC ≦ 4)” throughout.
On to `Cn1cc(NC(=O)c2cc(NC(=O)c3cc(NC(=O)c4sc5cc([N+](=O)[O-])ccc5c4Cl)cn3C)cn2C)cc1C(=O)NCCN1CCOCC1` [Ib-20j], for which the “Minimum Inhibitory Concentration (MIC)” value in assay [1], in assay [2], in assay [3] and in assay [4] was “+++ (+++ = MIC ≦ 4)” in each case.
As for `CN(C)c1ccc2c(Cl)c(C(=O)Nc3cc(C(=O)Nc4cc(C(=O)Nc5cc(C(=O)NCCN6CCOCC6)n(C)c5)n(C)c4)n(C)c3)sc2c1` [Ib-20k], the figures for the “Minimum Inhibitory Concentration (MIC)” value in assay [1], in assay [2] and in assay [3] were >32 µg/mL, “+++ (+++ = MIC ≦ 4)” and “+++ (+++ = MIC ≦ 4)”, respectively.
For the molecule `Cn1cc(NC(=O)c2cc(NC(=O)c3cc(NC(=O)c4sc5cc6c(cc5c4Cl)OCO6)cn3C)cn2C)cc1C(=O)NCCN1CCCCC1` [Ib-20l], the “Minimum Inhibitory Concentration (MIC)” value in assay [1], in assay [2], in assay [3] and in assay [4] was “+++ (+++ = MIC ≦ 4)” each time.
With `Cn1cc(NC(=O)c2sc3cc4c(cc3c2Cl)OCO4)cc1C(=O)NCCN1CCCCC1` [Ib-20n], the “Minimum Inhibitory Concentration (MIC)” value in assay [1], in assay [2], in assay [3] and in assay [4] was “+++ (+++ = MIC ≦ 4)” each time.
Consider `Cn1cc(NC(=O)c2sc3cc4c(cc3c2Cl)OCO4)cc1C(=O)NCCN1CCC(F)(F)CC1` [Ib-20q], for which the “Minimum Inhibitory Concentration (MIC)” value in assay [1] is >32 µg/mL; in assay [2], “+++ (+++ = MIC ≦ 4)”; in assay [3], “+++ (+++ = MIC ≦ 4)”; in assay [4], “+++ (+++ = MIC ≦ 4)”.
Consider `Cn1cc(NC(=O)c2cc3cc4c(cc3s2)OCO4)cc1C(=O)NCCN1CCOCC1` [Ib-20t], for which the “Minimum Inhibitory Concentration (MIC)” value in assay [1], in assay [2], in assay [3] and in assay [4] was “+++ (+++ = MIC ≦ 4)” in each case.
On to `Cn1cc(NC(=O)c2cc(NC(=O)c3cc4cc5c(cc4s3)OCO5)cn2C)cc1C(=O)NCCN1CCOCC1` [Ib-20u], for which the “Minimum Inhibitory Concentration (MIC)” value in assay [1], in assay [2], in assay [3] and in assay [4] was “+++ (+++ = MIC ≦ 4)” in each case.
On to `Cn1cc(NC(=O)c2cc(NC(=O)c3cc(NC(=O)c4cc5cc6c(cc5s4)OCO6)cn3C)cn2C)cc1C(=O)NCCN1CCOCC1` [Ib-20v], for which the “Minimum Inhibitory Concentration (MIC)” value in assay [1], in assay [2], in assay [3] and in assay [4] was “+++ (+++ = MIC ≦ 4)” in each case.
For the molecule `Cn1cc(NC(=O)c2cc3cc4c(cc3s2)OCO4)cc1C(=O)NCCN1CCSCC1` [Ib-20w], the “Minimum Inhibitory Concentration (MIC)” value in assay [1], in assay [2], in assay [3] and in assay [4] was “+++ (+++ = MIC ≦ 4)” each time.
As to `Cn1cc(NC(=O)c2cc3cc4c(cc3s2)OCO4)cc1C(=O)NCCN1CCCC1` [Ib-20x], the “Minimum Inhibitory Concentration (MIC)” value in assay [1], in assay [2], in assay [3] and in assay [4] was “+++ (+++ = MIC ≦ 4)” each time.
For the molecule `Cn1cc(NC(=O)c2cc(NC(=O)c3cc(NC(=O)c4cc5ccccc5cn4)cs3)cn2C)cc1C(=O)NCCN1CCOCC1` [Ib-51], the “Minimum Inhibitory Concentration (MIC)” value in assay [1], in assay [2] and in assay [3] was “+++ (+++ = MIC ≦ 4)” in each case.
As for `Cn1cc(NC(=O)c2cc3ccccc3cn2)cc1C(=O)Nc1cc(C(=O)Nc2cc(C(=O)NCCN3CCOCC3)ns2)n(C)c1` [Ib-52], the “Minimum Inhibitory Concentration (MIC)” value is “+++ (+++ = MIC ≦ 4)” in assay [1]; “+++ (+++ = MIC ≦ 4)” in assay [2]; “++ (++ = MIC between 4 and 12)” in assay [3].
`CCN(CC)CCNC(=O)c1cc(NC(=O)c2cc(NC(=O)c3cc(NC(=O)c4cc5ccccc5cn4)cn3C)cn2C)sn1` [Ib-53]: the “Minimum Inhibitory Concentration (MIC)” value in assay [1] was “++ (++ = MIC between 4 and 12)”; in assay [2], “++ (++ = MIC between 4 and 12)”; in assay [3] it was “+ (+ = MIC from 12 to 32, inclusive)”.
`Cn1cc(NC(=O)c2cc3ccccc3cn2)cc1C(=O)Nc1cc(C(=O)Nc2c[nH]c(C(=O)NCCN3CCSCC3)c2)n(C)c1` [Ib-54]: the “Minimum Inhibitory Concentration (MIC)” value in assay [1] is “++ (++ = MIC between 4 and 12)”; in assay [2], “+ (+ = MIC from 12 to 32, inclusive)”; in assay [3] it was “+ (+ = MIC from 12 to 32, inclusive)”.
Consider `Cn1cc(NC(=O)c2cc(NC(=O)c3cc(NC(=O)c4cc5ccccc5cn4)cn3C)cn2CCN2CCOCC2)cc1C(=O)NCCN1CCOCC1` [Ib-57], for which the “Minimum Inhibitory Concentration (MIC)” value in assay [1], in assay [2], in assay [3] and in assay [4] was “+++ (+++ = MIC ≦ 4)” each time.
As to `Cn1cc(NC(=O)c2cc3ccccc3cn2)cc1C(=O)Nc1cc(C(=O)Nc2cn(C)c(C(=O)NCCN3CCOCC3)n2)n(C)c1` [Ib-58], the “Minimum Inhibitory Concentration (MIC)” value in assay [1], in assay [2], in assay [3] and in assay [4] was “+++ (+++ = MIC ≦ 4)” throughout.
For `CN(C)CCSCCn1cc(NC(=O)c2cc3ccccc3cn2)cc1C(=O)Nc1cc(C(=O)Nc2ccc3cnccc3c2)n(C)c1` [Ib-73], the “Minimum Inhibitory Concentration (MIC)” value in assay [1], in assay [2], in assay [3] and in assay [4] was “+++ (+++ = MIC ≦ 4)” in each case.
`Cn1cc(NC(=O)c2cc3ccccc3cn2)cc1C(=O)Nc1cc(C(=O)Nc2ccc3sc(C(=O)NCCN4CCOCC4)cc3c2)n(C)c1` [Id-1]: the “Minimum Inhibitory Concentration (MIC)” value in assay [1] was >32 µg/mL.
